The results in this text go back to paper doi:10.1101/2020.08.04.236091v1 (biorxiv, 2020).

The structures appear in SMILES notation.

This assay has as its target T1, MdomOR30a (co-expressed with MdomOrco) (Musca domestica, UniProt A0A1I8MP03).
T1 sequence (A0A1I8MP03 1-373): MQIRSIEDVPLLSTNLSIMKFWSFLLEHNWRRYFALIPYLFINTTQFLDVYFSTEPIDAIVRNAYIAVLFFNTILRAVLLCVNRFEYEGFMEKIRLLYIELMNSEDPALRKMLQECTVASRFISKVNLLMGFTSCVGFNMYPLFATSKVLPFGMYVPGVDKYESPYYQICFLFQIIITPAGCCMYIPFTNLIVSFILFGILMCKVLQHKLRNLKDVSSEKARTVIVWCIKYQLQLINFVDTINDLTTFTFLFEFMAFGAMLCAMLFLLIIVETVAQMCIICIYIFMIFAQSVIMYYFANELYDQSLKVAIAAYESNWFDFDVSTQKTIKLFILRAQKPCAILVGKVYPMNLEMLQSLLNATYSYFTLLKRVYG
T1 sequence (I0E1X6 1-478 partner): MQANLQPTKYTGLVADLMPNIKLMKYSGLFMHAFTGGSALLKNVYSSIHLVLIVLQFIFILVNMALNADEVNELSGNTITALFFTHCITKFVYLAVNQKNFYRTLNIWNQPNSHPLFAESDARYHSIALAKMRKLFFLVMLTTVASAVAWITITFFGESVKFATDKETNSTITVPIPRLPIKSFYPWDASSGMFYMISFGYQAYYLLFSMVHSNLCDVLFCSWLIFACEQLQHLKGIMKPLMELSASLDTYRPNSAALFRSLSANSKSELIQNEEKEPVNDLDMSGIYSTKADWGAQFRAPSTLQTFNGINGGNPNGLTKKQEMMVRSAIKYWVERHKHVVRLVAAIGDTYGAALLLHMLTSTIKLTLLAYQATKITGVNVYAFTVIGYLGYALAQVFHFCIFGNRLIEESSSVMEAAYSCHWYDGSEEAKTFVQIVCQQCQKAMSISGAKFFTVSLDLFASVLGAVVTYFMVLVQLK
Nature of the assay: two-electrode voltage clamp, Xenopus oocytes, odorant-induced currents. Type of assay: cell-based.
As for `Cc1[nH]c2ccccc2c1C` [2,3-dimethylindole], the EC50 is 7.04 µM.

For `Cc1c[nH]c2ccccc12` [3-methylindole], the EC50 was determined as 0.331 µM. Compared with the last compound, the EC50 is about 21-fold lower.

As for `c1ccc2[nH]ccc2c1` [indole], the EC50 stood at 5.2 µM.
